Measured values reported in patent US20240400997A1, “TRANSFORMED HUMAN HEPATIC STELLATE CELL LINE AND USE THEREOF” (KOREA RESEARCH INSTITUTE OF BIOSCIENCE AND BIOTECHNOLOGY, priority 2020, published 2024).
Like-named read-outs stand apart in the source and are kept apart here.

How the values were obtained:
CYP3A4 enzyme [1] = assay: Liver injury simulation in 3D co-cultures with HepaRG: CYP3A4 enzyme activity and albumin production; settings: hydrogels and NP-hydrogels, K-HSC or LX-2 with HepaRG 1:1
TGF-β1 = assay: K-HSC/HepaRG 1:1 in 4% hydrogel with TGF-β1 and inhibitor A, 18-day culture, liver fibrosis marker expression; format: cell-based, human; settings: K-HSC/HepaRG 1:1, 4% hydrogel, 18 days
Method: Meanwhile, the K-HSC was encapsulated with the hepatic cell line HepaRG at a ratio of 1:1 in a 4% hydrogel and then 3D cultured, and the groups were divided into experimental groups to which TGF-β1, which is a fibrosis-inducing material, and inhibitor A thereof were added individually or simultaneously, and a control group to which TGF-β1 and inhibitor A were not added. The groups were cultured for 18 days, and then the cell network formation and expression differences of fibrosis markers in the liver analogs were confirmed.

[2] = test system: primary human hepatic cells; assay: K-HSC and primary human hepatic cells 1:1 in hydrogel or nanoparticle-hydrogel, TGF-β1 cycles, albumin; format: cell-based; settings: 10 ng/mL TGF-β1, 3 cycles, 24-day culture, K-HSC with primary human hepatic cells
Method: The K-HSC prepared in Example 1 was encapsulated with primary human hepatic cells (PHHs, Corning, USA) at a ratio of 1:1 in 4.5% polyethylene glycol/hyaluronic acid/RGD hydrogel using photopolymerization as described in Example 4. The cells frozen with nitrogen were thawed using recovery media (ThermoFisher, USA) and centrifuged, and then the number of cells were measured, and the cells were encapsulated with the K-HSC in a hydrogel, and then cultured for one day in a primary human hepatocyte plating medium (ThermoFisher, USA) containing 10% bovine serum. The medium was converted to a dedicated serum-free medium for primary human hepatic cells (Corning, USA), after 5 days, TGF-β1 inducing fibrosis, was added for 24 hours at a concentration of 10 ng/mL, and then converted back to a serum-free medium to which the TGF-β1 was not added in the following day, 3 cycles were performed, and the appearance change of the hydrogel was observed after the 24-day culture, and albumin production ability and expression levels of fibrosis markers were measured by RT-PCR.

CYP3A4 enzyme [3] = test system: CYP3A4 enzyme

Row | Compound | CYP3A4 enzyme activity and function (CYP3A4 enzyme [1]) | reactivity to TGF-β1 in expression of liver fibrosis markers (TGF-β1) | albumin degrading ability in the presence of TGF-β1 compared to control groups [2] | CYP3A4 enzyme activity and function (CYP3A4 enzyme [3])
1 | CN(Cc1cnc2nc(N)nc(N)c2n1)c1ccc(C(=O)N[C@@H](CCC(=O)O)C(=O)O)cc1 [MTX, methotrexate] | CYP3A4 enzyme activity and functional decrease were simulated | – | – | –
2 | transforming growth factor beta 1 [TGF-β1] | – | confirmed in all markers except smooth muscle actin alpha (α-SMA) and lysyl oxidase (LOX) | deterioration | CYP3A4 enzyme activity and functional decrease were simulated
